What all share (assay): NCI anticancer screen, dose series, 48 h
Experiment [1] relates to SF-295 CNS.
The subject of experiment [2] is T-47D breast.
Experiment [3] concerns HCT-116 colon.
In experiment [4] the test system is SW-620 colon.
For experiment [5], the system named is UACC-62 melanoma.
Experiment [6] has as its system NCI/ADR-RES ovarian.
Experiment [7] relates to LOX IMVI melanoma.
The test system of experiment [8] is HS 578T breast.
Experiment [9] relates to A498 renal.
For experiment [10], the system named is MALME-3M melanoma.

Several values for one entry are separate records, joined by “and”; a condition that tells them apart may be missing. Equal values may be shown once.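 Test compounds were applied to cells in 96-well plates for 48 hours at 5 doses. Abbreviation: GI50, concentration required for 50% inhibition of growth. TGI: concentration producing complete growth inhibition.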

With `COc1ccc(-c2nc(-c3cnccn3)n(C3OC(CO)C(O)C(O)C3O)n2)cc1` (configuration not stated), the TGI in experiment [1], in [2], in experiment [3], in experiment [4], in [5] and in [6] was above 100 µM throughout. In [7], this compound yielded a TGI above 100 µM.
For the compound `CCCCCCOc1ccc(C(=N)N(CCCC)CCCC)c2ccccc12`, the GI50 in experiment [1] is 1.6 µM; in experiment [8] it was 1.61 µM; in [4] it was 1.52 µM; in [5], 1.6 µM; in [9] it was 1.19 µM; in experiment [6], 1.43 µM. Further, the TGI is 3.17 µM in experiment [1]; 3.76 µM in experiment [8]; 3 µM in [4]; 3.23 µM in [5]; 2.45 µM in [9]; 2.79 µM in experiment [6].
As for `CC(C)(C)CC(C)(C)c1ccc(OCCOCC[N+](C)(C)Cc2ccccc2)cc1`, the TGI was 28.4 µM in experiment [1]; 2.69 µM and 3.55 µM in experiment [3]; 4.81 µM in experiment [8]; 3.64 µM in [10]; 21 µM in experiment [4]; 2.09 µM and 2.67 µM in [5]. The same compound registered a TGI in experiment [6] of 38.8 µM. The GI50 in experiment [3] is 1.38 µM; in [8] it was 1.61 µM; in experiment [5], 0.678 µM; in experiment [9], 1.54 µM; in experiment [6], 16.2 µM.
Regarding `C=CCOC(=O)CCCCCCCCCCCCCCCOC(=O)C1=C(CCC[C@@H](C)O[Si](C)(C)C(C)(C)C)NC(=O)N2[C@H](CC3(CC/C=C\[C@H](CC)O[Si](C(C)C)(C(C)C)C(C)C)OCCO3)CC[C@H]12`, the TGI in [1], in experiment [2], in experiment [3], in experiment [10], in experiment [5] and in [9] was above 100 µM each time. The TGI in experiment [6] is above 100 µM.
In the case of `NS(=O)(=O)c1cc(S(N)(=O)=O)c(NC(=O)N(c2ccccc2)c2ccccc2)c(Cl)c1Cl`, the TGI is 95.9 µM in experiment [1]; above 100 µM in experiment [3]; 44.9 µM in experiment [8]; above 100 µM in experiment [4]; 93.2 µM in experiment [5]; 54.4 µM in experiment [6]. This compound also returned a TGI in [7] of 25 µM.
`COC(=O)n1c(C[P+](c2ccccc2)(c2ccccc2)c2ccccc2)cc2ccccc21`: the TGI in experiment [1] amounted to 5.9 µM; in experiment [3] it was 11 µM; in [10], 17.1 µM; in experiment [4] it was 13.1 µM; in experiment [5], 16.3 µM; in experiment [9] it was 22.7 µM. In addition, in experiment [7], the TGI was 11.5 µM.
As for `O=C1CSc2nnc(CCCCCCCCc3nnc4n3NC(=O)CS4)n2N1`, the TGI in [1], in experiment [2], in experiment [3], in [10], in experiment [4] and in experiment [5] was above 100 µM throughout. Moreover, the TGI in experiment [9] and in experiment [6] was above 100 µM throughout.
Turning to `CC(C)(C)c1c(C(C)(C)C)c(=O)c1=O`, the TGI in experiment [1], in experiment [3], in experiment [8], in experiment [10], in experiment [4] and in experiment [5] was above 100 µM each time. Besides, the TGI in [9], in [6] and in [7] was above 100 µM each time.
For the compound `CC(=O)Nc1ccc(C(=O)N2N=C(C)/C(=C/c3ccc(O)cc3)C2=O)cc1`, the TGI in [1], in experiment [3], in experiment [10], in [4] and in experiment [7] was above 100 µM each time.
For `Nc1c(N=Nc2ccc(-c3ccc(N=Nc4c(O)ccc5cc(S(=O)(=O)O)cc(S(=O)(=O)O)c45)cc3)cc2)c(S(=O)(=O)O)cc2cc(S(=O)(=O)O)c(N=Nc3ccccc3)c(O)c12`, the TGI in experiment [1], in [3], in experiment [10], in experiment [4], in experiment [5] and in [9] was above 100 µM in each case. In addition, the TGI in experiment [6] and in [7] was above 100 µM in each case.
As for `CCOC1=C2NC(Cc3ccc(F)cc3)=NC2C(=O)c2ccccc21` (configuration not stated), the TGI was 55.8 µM in experiment [10], 63.3 µM in experiment [5], 87.9 µM in experiment [9] and 71.4 µM in [7].
Turning to `c1ccc(OCCSCCCCCCCCCCSCCOc2ccccc2)cc1`, the TGI was above 100 µM in experiment [1]; 90.4 µM in experiment [10]; above 100 µM in [4]; above 100 µM in experiment [5]; above 100 µM in experiment [9]; above 100 µM in experiment [7].
Turning to `C/C(=C\Cc1cc(O)ccc1O)CCc1c(C)cc(O)c(C=O)c1C`, the TGI in experiment [1] is 79 µM; in experiment [3], 41 µM; in experiment [10], 53.8 µM; in experiment [4] it was above 100 µM; in experiment [9], above 100 µM.
On to `CC12CC(C/C1=N/O)C(C)(C)C2` (configuration not stated), for which the TGI in experiment [1], in experiment [2], in [3], in [8], in [10] and in [4] was above 100 µM in each case. The TGI in experiment [5] and in experiment [9] was above 100 µM each time.
In the case of `O=S1(=O)OCCOS(=O)(=O)C1Cc1nc2ccccc2[nH]1`, the TGI in experiment [1] is above 100 µM; in [3], 57 µM; in experiment [10], above 100 µM; in experiment [6] it was above 100 µM; in experiment [7], 38.1 µM.
Consider `[N-]=[N+]=C(C(=O)C(=[N+]=[N-])C(=O)c1ccccc1)C(=O)c1ccccc1`, for which the TGI in experiment [1], in [3], in experiment [8], in [10], in experiment [4] and in [5] was above 100 µM each time. Further, the TGI in [6] and in experiment [7] was above 100 µM in each case.
For `COc1ccc(/C=C2\CCC(CNc3ccc(Br)cc3)C2=O)cc1` (configuration not stated), the TGI in experiment [1], in [2], in [10], in [4], in [5] and in [9] was above 100 µM in each case. Also, the TGI in experiment [6] and in experiment [7] was above 100 µM in each case.
Turning to `Cc1cc2n([O-])cccc-2[n+](=O)c1`, the TGI in experiment [1], in experiment [3], in experiment [10], in experiment [4] and in experiment [5] was above 100 µM each time.
`COC(=O)CC(NC(=O)OCc1ccccc1)C(C(=O)OCc1ccccc1)C1(C)OCCO1` (configuration not stated): the TGI in [1] is above 100 µM; in [3], above 100 µM; in experiment [10], above 100 µM; in [4], above 100 µM; in [5], 59.7 µM; in [9], above 100 µM. The compound also registered a TGI in experiment [7] above 100 µM.
With `CC1(C)COC(c2c(-c3ccccc3)noc2CS(=O)c2ccccc2)=N1` (configuration not stated), the TGI is above 100 µM in experiment [1]; above 100 µM in [3]; above 100 µM in experiment [10]; above 100 µM in [4]; 76.9 µM in experiment [5]; above 100 µM in experiment [9]. The compound further showed a TGI in [7] above 100 µM.
On to `OC12CCCCCC1(N1CCOCC1)c1ccccc12` (configuration not stated), for which the TGI in experiment [1], in [3], in [10], in experiment [4], in [5] and in experiment [9] was above 100 µM each time. For the same compound, the TGI in experiment [7] was above 100 µM.
In the case of `COc1ccc(C2=C(OC(=O)N(C)C)c3cccn3-c3cc(Cl)ccc3S2)cc1`, the TGI in experiment [1], in [2], in experiment [10], in experiment [4], in experiment [5] and in experiment [7] was above 10 µM each time.
Consider `COc1cccc(CN(C(=O)/C=C\Sc2ccccc2)C(C)(C)C)c1`, for which the TGI in experiment [1], in [2], in experiment [3], in experiment [4], in experiment [5] and in experiment [9] was above 100 µM in each case. Besides, the TGI in [6] and in experiment [7] was above 100 µM in each case.
With `CO[P@]1(=O)O[C@@H](c2ccccc2)[C@H](O)[C@@]1(O)c1ccccc1`, the TGI in [1], in experiment [2], in experiment [3], in experiment [10], in experiment [4] and in [5] was above 100 µM each time. The TGI in experiment [9], in [6] and in [7] was above 100 µM in each case.
As for `CC(c1ccccc1)N1CC(C)(c2ccccc2)N(O)C(c2ccccc2)C1C` (configuration not stated), the TGI turned out to be 37.5 µM in experiment [1]; 11.6 µM in experiment [3]; 66.2 µM in [10]; 68.1 µM in [4]; 85.3 µM in experiment [9]; 30.1 µM in experiment [7].
As to `N#CCCC1(CCC#N)CCCCCCC(CCC#N)(CCC#N)C(O)C1O` (configuration not stated), the TGI in experiment [1], in experiment [2], in [3], in [10], in experiment [4] and in [9] was above 100 µM in each case. Also, the TGI in [6] and in experiment [7] was above 100 µM throughout.
Consider `Cc1cn([C@H]2[C@@H](CO)C[C@H]2O)c(=O)[nH]c1=O`, for which the TGI in experiment [1], in experiment [3], in [8], in [10], in [4] and in experiment [9] was above 100 µM in each case. For the same compound, the TGI in [6] and in [7] was above 100 µM throughout.
For the compound `O=c1c2c(nc3n1CCC3)sc1c(O)c(Br)ccc12`, the TGI in experiment [1] amounted to 35 µM; in [3], 35.2 µM; in experiment [10] it was 34.4 µM; in [4], 29.9 µM; in [5], 35.8 µM; in experiment [9] it was 24.5 µM. In experiment [7], this compound registered a TGI of 27.1 µM.
Take `Cc1c2cccc-2ccc2c1[nH]c1ccccc12`: the TGI in [1] stood at 5.62 µM; in experiment [2] it was 8.45 µM; in experiment [3] it was 4.96 µM; in experiment [10], 4.03 µM; in [4], 7.68 µM; in experiment [5], 3.79 µM. Besides, the TGI was 28.5 µM in experiment [9], above 27.3 µM in [6] and 6.41 µM in experiment [7].
For `Cc1cc2occ(-c3ccc(Cl)cc3)c2c(=O)o1`, the TGI in [1], in [3], in [10], in [4], in experiment [5] and in experiment [9] was above 100 µM each time. Besides, the TGI in experiment [7] was above 100 µM.
Consider `Cc1cc(=O)[nH]c(NNC(C#N)c2ccc([N+](=O)[O-])cc2)n1` (configuration not stated), for which the TGI in [1], in experiment [3], in experiment [10], in experiment [4], in [5] and in [7] was above 100 µM in each case.
As to `Cc1cc([N+](=O)[O-])c(S(=O)(=O)c2ccccc2)c([N+](=O)[O-])c1`, the TGI in experiment [1] was 36.9 µM; in [3], 22.5 µM; in experiment [10] it was 27.9 µM; in experiment [4], 10.1 µM; in experiment [5] it was above 44.3 µM; in [9], 35.6 µM. Besides, the TGI in [7] is 6.51 µM.
For `CCN(CC)CCCCC1CCN(CC(=O)N2c3ccccc3NC(=O)CC2C)CC1` (configuration not stated), the TGI in experiment [1], in [3], in experiment [10], in [4], in experiment [5] and in experiment [9] was above 100 µM each time. In addition, the TGI in experiment [7] turned out to be 47.6 µM.
For `O=C(CSc1nc2ccc(I)cc2c(=O)n1Cc1ccccc1)NN1C(=O)CCC1=O`, the TGI in experiment [1], in experiment [2], in experiment [3], in experiment [4], in experiment [5] and in experiment [6] was above 100 µM each time. The compound further registered a TGI in experiment [7] above 100 µM.
